Activity data for twelve molecules are collected here from ChEMBL document CHEMBL1137758, “Biphenyl C-cyclopropylalkylamides: New scaffolds for targeting estrogen receptor beta” (Bioorg Med Chem Lett, 2009).

Test [1] deals with T1, Estrogen receptor (Homo sapiens) (UniProt P03372).
T1 sequence (whole entry): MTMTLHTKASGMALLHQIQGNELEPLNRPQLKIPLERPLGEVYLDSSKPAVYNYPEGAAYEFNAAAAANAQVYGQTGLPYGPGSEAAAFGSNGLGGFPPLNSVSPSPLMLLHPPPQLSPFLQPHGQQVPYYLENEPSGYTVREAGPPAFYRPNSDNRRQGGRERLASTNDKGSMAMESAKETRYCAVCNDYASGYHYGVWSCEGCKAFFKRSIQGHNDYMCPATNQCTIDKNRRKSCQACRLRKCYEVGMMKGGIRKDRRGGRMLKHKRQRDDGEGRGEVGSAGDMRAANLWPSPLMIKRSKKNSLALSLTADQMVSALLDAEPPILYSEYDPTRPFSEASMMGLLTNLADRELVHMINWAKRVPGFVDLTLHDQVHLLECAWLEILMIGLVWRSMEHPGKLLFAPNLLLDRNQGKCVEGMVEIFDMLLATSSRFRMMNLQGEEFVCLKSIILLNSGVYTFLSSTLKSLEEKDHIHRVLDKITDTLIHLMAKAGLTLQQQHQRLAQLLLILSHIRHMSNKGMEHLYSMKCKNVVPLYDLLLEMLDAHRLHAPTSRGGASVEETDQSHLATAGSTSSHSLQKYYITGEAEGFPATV
Kind of test: Displacement of fluorescein-labeled estradiol from human recombinant ERalpha at 0.2 uM by fluorescence polarization assay.

For test [2], the target named is T2, Estrogen receptor beta (Homo sapiens, UniProt Q92731). Kind of test: Displacement of fluorescein-labeled estradiol from human recombinant ERbeta at 0.2 uM by fluorescence polarization assay.
T2 sequence (Q92731 whole entry): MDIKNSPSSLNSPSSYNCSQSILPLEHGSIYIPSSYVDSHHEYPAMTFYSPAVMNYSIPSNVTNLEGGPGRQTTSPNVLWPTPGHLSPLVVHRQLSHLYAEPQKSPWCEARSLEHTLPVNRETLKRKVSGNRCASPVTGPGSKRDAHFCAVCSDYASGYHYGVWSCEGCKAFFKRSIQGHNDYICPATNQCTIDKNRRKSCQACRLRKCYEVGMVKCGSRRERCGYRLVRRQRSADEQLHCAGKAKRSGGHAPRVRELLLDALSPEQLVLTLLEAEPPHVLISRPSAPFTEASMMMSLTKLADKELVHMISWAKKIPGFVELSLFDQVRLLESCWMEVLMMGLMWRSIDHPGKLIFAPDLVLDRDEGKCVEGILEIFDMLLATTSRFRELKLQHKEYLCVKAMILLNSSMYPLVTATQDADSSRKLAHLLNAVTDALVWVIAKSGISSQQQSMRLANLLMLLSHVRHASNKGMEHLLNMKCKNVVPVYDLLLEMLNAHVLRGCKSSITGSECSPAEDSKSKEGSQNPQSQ
The target of test [3] is T2, Estrogen receptor beta. Nature of the test: Displacement of fluorescein-labeled estradiol from human recombinant ERbeta at 1 uM by fluorescence polarization assay.
Test [4] addresses T1, Estrogen receptor (Homo sapiens). Nature of the test: Displacement of fluorescein-labeled estradiol from human recombinant ERalpha at 1 uM by fluorescence polarization assay.
The target is the same in test [5]. Nature of the test: Displacement of fluorescein-labeled estradiol from human recombinant ERalpha at 5 uM by fluorescence polarization assay.
Test [6] addresses T2, Estrogen receptor beta. Kind of test: Displacement of fluorescein-labeled estradiol from human recombinant ERbeta at 5 uM by fluorescence polarization assay.

On to `CCCC[C@@H]1C[C@H]1[C@@H](NS(=O)(=O)c1cccc2cccnc12)c1ccc(-c2ccccc2)cc1`, for which the Activity in test [1] was 52%; on Estrogen receptor beta [2], 28%; at Estrogen receptor beta [3], 18%; in test [4], 74%; in test [5], 91%; on Estrogen receptor beta [6], 22%.

Take `CCCC[C@@H]1C[C@H]1[C@@H](NC(=O)C(C)(C)C)c1ccc(C(F)(F)F)cc1`: the Activity in test [1] was 40%; on Estrogen receptor beta [2], -2%; at Estrogen receptor beta [3], -4%; in test [4], 39%; in test [5], 56%; at Estrogen receptor beta [6] it was 7%.

In the case of `CCCC[C@@H]1C[C@H]1[C@@H](NC(=O)c1ccc(C(F)(F)F)cc1)c1ccc(C(=O)OC)cc1`, the Activity in test [1] is 20%; on Estrogen receptor beta [2], -2%; on Estrogen receptor beta [3], 1%; in test [4], 45%; in test [5], 45%; at Estrogen receptor beta [6], 15%.

Consider `CCC/C=C(\CCC)[C@@H](NC(=O)c1ccc(C(F)(F)F)cc1)c1ccccc1`, for which the Activity in test [1] turned out to be 47%; on Estrogen receptor beta [2], 10%; on Estrogen receptor beta [3], 11%; in test [4] it was 59%; in test [5], 68%; at Estrogen receptor beta [6] it was 16%.

On to `CCC/C=C(\CCC)[C@@H](NS(=O)(=O)c1cccs1)c1ccc(C(=O)OC)cc1`, for which the Activity in test [1] amounted to 39%; at Estrogen receptor beta [2] it was 5%; at Estrogen receptor beta [3], 8%; in test [4] it was 33%; in test [5], 92%; on Estrogen receptor beta [6], 32%.

Consider `CCC/C=C(\CCC)[C@@H](NC(=O)c1ccccc1)c1ccc(C(=O)OC)cc1`, for which the Activity was found to be 0% in test [1]; 1% at Estrogen receptor beta [2]; 28% on Estrogen receptor beta [3]; 52% in test [4]; 78% in test [5]; 11% on Estrogen receptor beta [6].

For `CCC[C@@H]1C[C@@]1(CCC)[C@@H](NC(=O)c1ccco1)c1ccc(C(Cl)(Cl)Cl)cc1`, the Activity in test [1] is 26%; on Estrogen receptor beta [2], -2%; at Estrogen receptor beta [3], 5%; in test [4], 39%; in test [5], 73%; at Estrogen receptor beta [6] it was 25%.

Take `CCCC[C@@H]1C[C@H]1[C@@H](NC(=O)c1ccco1)c1ccccc1`: the Activity in test [1] amounted to 63%; on Estrogen receptor beta [2] it was 8%; on Estrogen receptor beta [3], 7%; in test [4], 65%; in test [5], 91%; at Estrogen receptor beta [6] it was 20%.

On to `C=C(CCCC)[C@@H](NC(=O)c1ccc(C(F)(F)F)cc1)c1ccccc1`, for which the Activity in test [1] is -61%; on Estrogen receptor beta [2], -8%; at Estrogen receptor beta [3], -7%; in test [4], 21%; in test [5], 27%; at Estrogen receptor beta [6] it was 3%.

Regarding `C=C(CCCC)[C@@H](NC(=O)c1ccc(-c2ccccc2)cc1)c1ccccc1`, the Activity was -33% in test [1]; 0% at Estrogen receptor beta [2]; 2% on Estrogen receptor beta [3]; 35% in test [4]; 46% in test [5]; 8% on Estrogen receptor beta [6].

Regarding `CCCC[C@@H]1C[C@@]1(C)[C@@H](NS(=O)(=O)c1cccc2cccnc12)c1ccc(-c2ccccc2)cc1`, the Activity in test [1] was 52%; at Estrogen receptor beta [2], -5%; at Estrogen receptor beta [3], -4%; in test [4], 52%; in test [5], 41%; on Estrogen receptor beta [6] it was 2%.

On to `C=C(CCCC)[C@@H](NC(=O)c1cccs1)c1ccccc1`, for which the Activity was 67% in test [1]; -1% on Estrogen receptor beta [2]; -3% at Estrogen receptor beta [3]; 40% in test [4]; 54% in test [5]; 8% at Estrogen receptor beta [6].
